Key:
[1] = tested on: AP-1 site in the presence of ERα; conditions: cited from earlier work
[2] = tested on: AP-1 site in the presence of ERβ; conditions: cited from earlier work
human ERα = human ERα (Homo sapiens (Human), UniProt P03372); assay: Competitive steroid binding assay, ERα
human ERβ = human ERβ (Homo sapiens (Human), UniProt Q92731); assay: Competitive steroid binding assay, ERβ
[3] = Single rising oral dose study in healthy postmenopausal volunteers; assay type: in vivo, human
Protocol: To determine the bioavailability and elimination half-life of estetrol after oral dosing in humans a single rising dosing study was performed in healthy postmenopausal volunteers. Volunteers (n=6) were randomly assigned to 0.1, 1 or 10 mg estetrol and blood samples (18 per volunteer) were obtained over a period of 72 hours. After thawing the plasma samples, liquid-liquid extraction (hexane and diethyl ether) was employed to prepare the estetrol-containing plasma samples for HPLC analysis (Perkin is Elmer 200) and tandem mass spectrometry using a PE Sciex 4000 tandem mass spectrometer and APCI interface. With each sample batch, a calibration curve with 6 calibrators was recorded.

[4] = tested on: DMBA-induced mammary tumours; assay: DMBA-induced tumour model in rats, prevention (Example 3); assay type: in vivo, rat; conditions: 8 weeks
[5] = tested on: DMBA-induced mammary tumours; assay: Second DMBA trial in rats, dose-response prevention study (Example 4); assay type: in vivo, rat; conditions: 8 weeks
From the text: Estetrol and tamoxifen were subsequently tested in a second DMBA trial in rats to evaluate the dose-response relationships in preventing rats from developing mammary tumours. The experimental procedure as set forth in example 3 was used as a prevention study to treat the animals (12 animals per group) for 8 consecutive weeks after tumour induction with oral dosages of either estetrol or tamoxifen. DMBA-exposed rats were randomly assigned to treatment groups, receiving oral treatment as follows: • Group 1 animals received placebo oral treatment in the form of a single daily dose of 3.0 ml/kg vehicle (20% wt/vol solution of hydroxypropyl-beta-cyclodextrin in water); • Group 2 animals received tamoxifen orally at a single daily dose of 1 mg/kg; • Group 3 animals received tamoxifen orally at a single daily dose of 2 mg/kg; • Group 4 animals received tamoxifen orally at a single daily dose of 3 mg/kg; • Group 5 animals received estetrol orally at a single daily dose of 0.5 mg/kg; • Group 6 animals received estetrol orally at a single daily dose of 1.0 mg/kg; • Group 7 animals received estetrol orally at a single daily dose of 1.5 mg/kg; • Group 8 animals received estetrol orally at a single daily dose of 2.0 mg/kg; • Group 9 animals received estetrol orally at a single daily dose of 2.5 mg/kg; and • Group 10 animals received estetrol orally at a single daily dose of 3.0 mg/kg
During the treatment period of 8 weeks, the emergence of palpable tumours and number of tumours were determined weekly. The number of mammary tumours at necropsy is depicted in FIG. 2.

[6] = tested on: pre-existing DMBA-induced mammary tumours; assay: DMBA-induced tumour model in rats, therapeutic design, pre-existing tumours (Example 5); assay type: in vivo, rat
Protocol: As set forth in example 3, female Sprague-Dawley rats were given 16 mg DMBA at the age of 50 days. Mammary tumour development was allowed to proceed until week 8 after DMBA treatment. Animals were subsequently allocated to one of six groups, receiving 4 weeks daily oral treatment with placebo, tamoxifen or estetrol as follows: • Group 1 animals received placebo treatment with a single daily dose of 3.0 ml/kg vehicle (20% wt/vol solution of hydroxypropyl-beta-cyclodextrin in water); • Group 2 animals were surgically castrated and received placebo treatment with 3.0 ml/kg/day vehicle; • Group 3 animals received tamoxifen at a dose of 1 mg/kg; • Group 4 animals received estetrol at a dose of 1.0 mg/kg; • Group 5 animals received estetrol at a dose of 3.0 mg/kg; • Group 6 animals received estetrol at a dose of 10.0 mg/kg. […] During therapy, the progression or disappearance of palpable mammary tumours and the size of the tumours were determined weekly. At necropsy, tumours were counted, measured and the change from baseline at the start of treatment was calculated.

[7] = Previous studies: agonistic models of bone resorption, hot flushing and vaginal cornification; assay type: in vivo; conditions: vaginal cornification
From the text: Eighty-four female Sprague-Dawley rats (Harlan, The Netherlands) were group housed, maintained in a 12-hr light/dark environment, and fed a Soya Free Diet (SDS England) and water ad libitum. Animals were weighed on a weekly basis.

[8] = tested on: cultured endothelial cells of human umbilical cord veins; conditions: cited from earlier work

Chain of human ERα (P03372 whole entry): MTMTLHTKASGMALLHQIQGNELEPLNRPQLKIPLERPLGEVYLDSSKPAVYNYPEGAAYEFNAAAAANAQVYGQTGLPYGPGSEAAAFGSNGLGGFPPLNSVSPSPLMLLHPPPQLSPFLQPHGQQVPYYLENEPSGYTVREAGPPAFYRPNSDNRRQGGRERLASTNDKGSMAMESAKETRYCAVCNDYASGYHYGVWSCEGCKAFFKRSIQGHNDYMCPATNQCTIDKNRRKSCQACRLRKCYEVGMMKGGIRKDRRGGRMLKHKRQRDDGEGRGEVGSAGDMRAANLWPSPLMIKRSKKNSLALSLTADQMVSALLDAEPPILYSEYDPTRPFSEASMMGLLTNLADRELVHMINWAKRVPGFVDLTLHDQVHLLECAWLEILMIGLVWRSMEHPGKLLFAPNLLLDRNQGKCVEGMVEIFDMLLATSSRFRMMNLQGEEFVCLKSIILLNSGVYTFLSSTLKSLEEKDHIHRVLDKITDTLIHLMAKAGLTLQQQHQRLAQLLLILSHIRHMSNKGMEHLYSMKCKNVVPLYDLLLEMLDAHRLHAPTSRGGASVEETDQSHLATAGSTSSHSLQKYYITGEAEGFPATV
Chain of human ERβ (Q92731 whole entry): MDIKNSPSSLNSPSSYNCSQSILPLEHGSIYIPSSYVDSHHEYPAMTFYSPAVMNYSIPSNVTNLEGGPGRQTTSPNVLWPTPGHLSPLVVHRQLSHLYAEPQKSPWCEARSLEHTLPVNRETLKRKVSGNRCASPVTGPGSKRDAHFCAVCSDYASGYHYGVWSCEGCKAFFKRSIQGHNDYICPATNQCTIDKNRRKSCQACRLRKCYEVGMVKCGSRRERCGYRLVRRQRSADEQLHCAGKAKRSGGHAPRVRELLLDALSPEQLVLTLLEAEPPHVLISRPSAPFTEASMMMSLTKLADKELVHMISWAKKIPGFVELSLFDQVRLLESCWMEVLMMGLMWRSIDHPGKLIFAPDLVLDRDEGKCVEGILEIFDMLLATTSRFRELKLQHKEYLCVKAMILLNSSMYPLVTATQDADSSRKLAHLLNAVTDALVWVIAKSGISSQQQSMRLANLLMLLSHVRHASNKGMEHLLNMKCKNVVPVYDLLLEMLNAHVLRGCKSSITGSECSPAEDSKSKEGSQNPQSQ

Compound: C[C@]12CC[C@@H]3c4ccc(O)cc4C[C@@H](CCCCCCCCC[S+]([O-])CCCC(F)(F)C(F)(F)F)[C@H]3[C@@H]1CC[C@@H]2O (stereo partly shown) [ICI-182,780]
- Effect on AP-1 site [1]: inhibit
- Effect on AP-1 site [2]: stimulate

Compound: C[C@]12CC[C@@H]3c4ccc(O)cc4CC[C@H]3[C@@H]1[C@@H](O)[C@@H](O)[C@@H]2O [E4, 1,3,5 (10)-estratrien-3,15α,16α,17β-tetrol]
- Ki (human ERα): 4.9 nM
- Relative ERα/ERβ preference (human ERα; preference for binding to ERα protein versus ERβ protein): 400%
- Ki (human ERβ): 19 nM
- half-life ([3]; female, human, plasma, po, oral dosing, human postmenopausal subjects, read-out: Elimination half-life): > 20 h
- AUC values, dose-linearity ([3]; oral 0.1, 1, 10 mg, plasma): good dose-linearity
- Tolerability ([3]; oral dose increased from 0.1 to 1 and 10 mg, postmenopausal volunteers): Good tolerability
- Oral absorption ([3]; over the entire dose range 0.1-10 mg oral): well absorbed
- Efficacy in preventing growth of DMBA-induced tumours relative to tamoxifen ([4]; E4 […] vs tamoxifen 3 mg/kg/day orally): as effective as tamoxifen
- Mammary tumour formation ([5]; estetrol 0.5-3.0 mg/kg/day orally): dose-dependent inhibition of mammary tumour formation
- Protection from developing tumours ([5]; estetrol 2.5 and 3.0 mg/kg/day orally): completely protected rats from developing tumours
- Tumour number at necropsy ([6]; estetrol 1 mg/kg/day orally 4 weeks, n=9, 16 at start of treatment): 23
- Tumour number at necropsy ([6]; estetrol 3 mg/kg/day orally 4 weeks, n=9, 16 at start of treatment): 15
- Tumour number at necropsy ([6]; estetrol 10 mg/kg/day orally 4 weeks, n=10, 18 at start of treatment): 7
- Tumour size, percentage change from baseline, net group effect ([6]; estetrol 1, 3, 10 mg/kg/day orally 4 weeks): dose dependent pronounced tumour size reduction
- Efficacy, net disappearance of mammary tumours ([6]; estetrol orally 4 weeks, started 8 weeks after DMBA): comparable to ovariectomy
- In vivo estrogenicity, relative potency ([7]; 0.125 mg/kg/day EE vs […] E4, hot flushing): equipotency
- In vivo estrogenicity, relative potency ([7]; […] EE vs 0.5 mg/kg/day E4, hot flushing): equipotency
- Effect on proliferation of vascular endothelial cells [8]: No significant effect

Compound: C[C@]12CC[C@@H]3c4ccc(O)cc4CC[C@H]3[C@@H]1CC[C@@H]2O [E2, 17β-estradiol]
- Effect on AP-1 site [1]: activates
- Effect on AP-1 site [2]: inhibits

Compound: O=C(c1ccc(OCCN2CCCCC2)cc1)c1c(-c2ccc(O)cc2)sc2cc(O)ccc12 [raloxifene]
- Effect on AP-1 site [1]: inhibit
- Effect on AP-1 site [2]: stimulate

Compound: CC/C(=C(\c1ccccc1)c1ccc(OCCN(C)C)cc1)c1ccccc1 [tamoxifen, reference compound]
- Development of mammary tumours ([4]; tamoxifen 3 mg/kg/day orally): inhibiting the development of mammary tumours
- Palpable tumours developed ([5]; tamoxifen 1, 2 and 3 mg/kg/day orally): In none of the tamoxifen groups (1, 2, and 3 mg/kg/day) palpable tumours developed
- Tumour size, percentage change from baseline, net group effect ([6]; tamoxifen 1 mg/kg/day orally 4 weeks): increase in tumour size as net group effect
- Efficacy against further development and progression of mammary tumours ([6]; tamoxifen 1 mg/kg/day orally 4 weeks, started 8 weeks after DMBA): ineffective
- Tumour number at necropsy ([6]; tamoxifen 1 mg/kg/day orally 4 weeks, n=8, 15 at start of treatment): 19
- Effect on AP-1 site [1]: inhibit
- Effect on AP-1 site [2]: stimulate

From patent US9034854B2, “Pharmaceutical composition comprising estetrol derivatives for use in cancer therapy” (priority 2002, dated 2015)
